{"source": "paper PMC2992351", "about": "(ACS medicinal chemistry letters, 2010)", "biological_target": "Grb2 SH2 domain (Homo sapiens, UniProt P62993)", "sequence (P62993 60-152 limits assumed)": "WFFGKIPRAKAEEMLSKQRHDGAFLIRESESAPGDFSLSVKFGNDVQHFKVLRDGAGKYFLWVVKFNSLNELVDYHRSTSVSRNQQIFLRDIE", "assay": "Isothermal titration calorimetry", "assay_type": "binding", "details": "for Ka / ΔG^o / ΔH^o / ΔS^o / −TΔS^o: ITC at 298 K, average of at least two experiments; for Ka: association constant", "data": [{"substance": "pYVNG (head to tail) [compound 1]", "values": [{"measurement": "Ka", "result": "(4.7 ± 0.11) × 10^4 M^−1"}, {"measurement": "ΔG^o", "result": "-6.4 ± 0.01", "unit": "kcal/mol"}, {"measurement": "ΔH^o", "result": "-3.5 ± 0.26", "unit": "kcal/mol"}, {"measurement": "ΔS^o", "result": "9.8 ± 0.20", "unit": "cal mol^−1K^−1"}, {"measurement": "−TΔS^o", "result": "-2.9 ± 0.06", "unit": "kcal/mol"}, {"measurement": "fold lower affinity than acyclic control 4", "setting": "ITC, macrocycle vs its acyclic control", "result": "about 10 fold"}]}, {"substance": "pYVNV (head to tail) [compound 2]", "values": [{"measurement": "Ka", "result": "(2.3 ± 0.21) × 10^6 M^−1"}, {"measurement": "ΔG^o", "result": "-8.7 ± 0.06", "unit": "kcal/mol"}, {"measurement": "ΔH^o", "result": "-4.3 ± 0.32", "unit": "kcal/mol"}, {"measurement": "ΔS^o", "result": "14.8 ± 0.54", "unit": "cal mol^−1K^−1"}, {"measurement": "−TΔS^o", "result": "-4.4 ± 0.16", "unit": "kcal/mol"}]}, {"substance": "pYVNVP (head to tail) [compound 7]", "values": [{"measurement": "Ka", "result": "(1.0 ± 0.20) × 10^7 M^−1"}, {"measurement": "ΔG^o", "result": "-9.6 ± 0.09", "unit": "kcal/mol"}, {"measurement": "ΔH^o", "result": "-4.3 ± 0.57", "unit": "kcal/mol"}, {"measurement": "ΔS^o", "result": "17.7 ± 1.20", "unit": "cal mol^−1K^−1"}, {"measurement": "−TΔS^o", "result": "-5.3 ± 0.36", "unit": "kcal/mol"}, {"measurement": "difference in binding enthalpies of 7 and 8", "setting": "ITC, 7 vs 8", "result": 2, "unit": "kcal/mol"}, {"measurement": "fold greater affinity than linear control 8", "setting": "ITC, macrocycle 7 vs linear control 8", "result": "about two-fold"}]}]}
